In patent publication US11192893B2, “Pyrazoloquinazolinone antitumor agents” (The Rockefeller University, priority 2017, dated 2021) one finds activity and IC50 data, which are given here for 28 compounds.

This test relates to Hedgehog pathway activity. Nature of the test: Shh-Light luciferase reporter assay of Hedgehog pathway activity (Shh-Light2 cells, SAG-stimulated). The test is classed as cell-based. The conditions noted are these: for activity at 2 µM: 2 μM compound, read-out: SHH-light % residual @ 2 μM; for activity at 2 µM / activity at 20 µM: SAG 500 nM; for activity at 20 µM: 20 μM compound, read-out: SHH-light % residual @ 20 μM; for IC50: Table 2, SAG 500 nM, 28-32 hr treatment, read-out: Shh-light IC50. The method, then:
To examine the inhibition of dynein 2 in cell-based assays, an established luciferase reporter-based cellular assay of Hedgehog pathway activity was employed [Taipale et al., Nature. 2000; 406(6799): 1005-9]. Signaling in this pathway depends on the function of dynein 2. In this setting, expression of luciferase driven by Hedgehog pathway activity was inhibited by compound 5 with an IC50 value of 0.9±0.5 μM. […] The potencies of these compounds in this cell-based assay match the rank-order of dynein 2 inhibition in vitro. In these assays, Hedgehog pathway activity was stimulated using the Synthetic Agonist of Smoothened (SAG). This compound competes with many Hedgehog pathway inhibitors for binding to Smoothened, a key node in the signaling pathway.
SHH-Light Assay (Steinman et al. eLife 2017; 6:e25174.)
NIH-3T3 cells stably expressing a luciferase reporter downstream of a Gli binding site (Shh-Light2 cells, RRID: CVCL_2721) were maintained in DMEM with 10% bovine calf serum (BCS). Cells were seeded at a density of 30,000 cells/well in 96-well tissue culture-treated plates (Corning, cat #353072) in 100 μL in DMEM+10% BCS, and incubated for 48 hr (Taipale et al., 2000). Wells were washed briefly with PBS. Next […] of low serum media (DMEM+0.5% BCS) containing smoothened agonist (SAG, 500 nM), and either solvent control (0.2% DMSO) or test compound (serial three-fold dilutions of each inhibitor starting from 20 μM) were added to the wells. After 28-32 hr of inhibitor treatment, cells were washed with 50 μL PBS and lysed for >30 min in 30 μL Passive Lysis Buffer (Promega Dual Luciferase kit, cat E1910). 5 uL of each lysate was transferred to white, solid-bottom 96-well plates (Greiner, cat #655075), followed by rapid addition (within 30 s) of 30 μL of Luciferase Assay Reagent using a multichannel pipette. Luminescence for each condition was read using a Synergy Neo plate reader (5 s integration time per well). Cell line identity was confirmed by measurement of the degree of response to Hedgehog pathway stimulation by the synthetic agonist SAG and using previously published values from our groups and others as references (Firestone et al., 2012; Hyman et al., 2009).

For orientation: IC50 means the concentration at which inhibition is half-maximal. `N#Cc1c(C2CCC(c3ccc(Cl)cc3)CC2)nn2c(=O)c3cc(Br)ccc3[nH]c12` (stereo not drawn) [Example 22, 7-Bromo-2-[4-(4-chlorophenyl)cyclohexyl]-9-oxo-4H-pyrazolo[5,1-b]quinazoline-3-carbonitrile]: the activity at 2 µM is -2.9%, the activity at 20 µM was -2.8% and the IC50 is 670 nM.
With `N#Cc1c(OC2CCN(c3ncc(Cl)cn3)CC2)nn2c(=O)c3cc(Cl)ccc3[nH]c12` [Example 23, 7-Chloro-2-[[1-(5-chloropyrimidin-2-yl)-4-piperidyl]oxy]-9-oxo-4H-pyrazolo[5,1-b]quinazoline-3-carbonitrile], the activity at 2 µM amounted to 8.2% and the activity at 20 µM was -2.9%.
Regarding `N#Cc1c(OC2CCN(C(=O)c3ccc(Cl)cc3)CC2)nn2c(=O)c3cc(Cl)ccc3[nH]c12` [Example 24, 7-Chloro-2-[[1-(4-chlorobenzoyl)-4-piperidyl]oxy]-9-oxo-4H-pyrazolo[5,1-b]quinazoline-3-carbonitrile], the activity at 2 µM amounted to 72.4% and the activity at 20 µM came to 1.6%.
On the same counts, the results for `N#Cc1c(OC2CCN(c3ccc(Cl)cn3)CC2)nn2c(=O)c3cc(Cl)ccc3[nH]c12` [Example 25, 7-Chloro-2-[[1-(5-chloro-2-pyridyl)-4-piperidyl]oxy]-9-oxo-4H-pyrazolo[5,1-b]quinazoline-3-carbonitrile] are 41.7% and -3.8%.
For the compound `NC(=O)c1c(C2CCC(c3ccc(Cl)cc3)CC2)nn2c(=O)c3ccccc3[nH]c12` (stereo not drawn) [Example 26, 2-[4-(4-Chlorophenyl)cyclohexyl]-9-oxo-4H-pyrazolo[5,1-b]quinazoline-3-carboxamide], the activity at 2 µM came to 68.8% and the activity at 20 µM was -4.5%.
The like results for `NC(=O)c1c(CCCOc2ccc(Cl)cc2)nn2c(=O)c3ccccc3[nH]c12` [Example 28, 2-[3-(4-Chlorophenoxy)propyl]-9-oxo-4H-pyrazolo[5,1-b]quinazoline-3-carboxamide] were, in that order, 68.9% and 40.3%.
The like results for `NC(=O)c1c(C2(c3ccc(Cl)cc3)CC2)nn2c(=O)c3ccccc3[nH]c12` [Example 30, 2-[1-(4-Chlorophenyl)cyclopropyl]-9-oxo-4H-pyrazolo[5,1-b]quinazoline-3-carboxamide] were, in that order, 101% and 22.1%.
In the case of `NC(=O)c1c(-c2ccc(Cl)cc2Cl)nn2c(=O)c3ccccc3[nH]c12` [Example 32, 2-(2,4-Dichlorophenyl)-9-oxo-4H-pyrazolo[5,1-b]quinazoline-3-carboxamide], the activity at 20 µM was 57.5%.
As to `N#Cc1c(-c2ccc(Cl)cc2Cl)nn2c(=O)c3ccccc3[nH]c12` [Example 33, 2-(2,4-Dichlorophenyl)-9-oxo-4H-pyrazolo[5,1-b]quinazoline-3-carbonitrile], the activity at 20 µM was -3.6% and the IC50 amounted to 2000 nM.
On the same counts, the results for `NC(=O)c1c(-c2ccc(Cl)cc2Cl)nn2c(=O)c3ccc(Cl)cc3[nH]c12` [Example 34, 6-Chloro-2-(2,4-dichlorophenyl)-9-oxo-4H-pyrazolo[5,1-b]quinazoline-3-carboxamide] are -3.4% and 3600 nM.
Consider `N#Cc1c(-c2ccc(Cl)cc2Cl)nn2c(=O)c3ccc(Cl)cc3[nH]c12` [Example 35, 6-Chloro-2-(2,4-dichlorophenyl)-9-oxo-4H-pyrazolo[5,1-b]quinazoline-3-carbonitrile], for which the IC50 came out at 2100 nM.
The same measure, in the same setting: as for `COc1cccc2c(=O)n3nc(-c4ccc(Cl)cc4Cl)c(C#N)c3[nH]c12` [Example 36, 2-(2,4-Dichlorophenyl)-5-methoxy-9-oxo-4H-pyrazolo[5,1-b]quinazoline-3-carbonitrile], the figure is 10000 nM.
On to `COc1cccc2[nH]c3c(C#N)c(-c4ccc(Cl)cc4Cl)nn3c(=O)c12` [Example 37, 2-(2,4-Dichlorophenyl)-8-methoxy-9-oxo-4H-pyrazolo[5,1-b]quinazoline-3-carbonitrile], for which the activity at 2 µM is 100% and the activity at 20 µM came to 18%.
As to `COc1c(Cl)ccc2c(=O)n3nc(-c4ccc(Cl)cc4Cl)c(C#N)c3[nH]c12` [Example 38, 6-Chloro-2-(2,4-dichlorophenyl)-5-methoxy-9-oxo-4H-pyrazolo[5,1-b]quinazoline-3-carbonitrile], the activity at 2 µM is 74%, the activity at 20 µM amounted to 19% and the IC50 stood at 2000 nM.
Regarding `COc1ccc2[nH]c3c(C(N)=O)c(-c4ccc(Cl)cc4Cl)nn3c(=O)c2c1` [Example 39, 2-(2,4-Dichlorophenyl)-7-methoxy-9-oxo-4H-pyrazolo[5,1-b]quinazoline-3-carboxamide], the activity at 20 µM turned out to be 121% and the concentration for half-maximal inhibition (IC50) amounted to 13000 nM.
For `COc1ccc2[nH]c3c(C#N)c(-c4ccc(Cl)cc4Cl)nn3c(=O)c2c1` [Example 40, 2-(2,4-Dichlorophenyl)-7-methoxy-9-oxo-4H-pyrazolo[5,1-b]quinazoline-3-carbonitrile], the activity at 2 µM was found to be 37%, the activity at 20 µM was 14% and the half-inhibitory concentration (IC50) came to 594 nM.
As for `NC(=O)c1c(COc2ccc(Cl)cc2)nn2c(=O)c3ccccc3[nH]c12` [Example 41, 2-[(4-Chlorophenoxy)methyl]-9-oxo-4H-pyrazolo[5,1-b]quinazoline-3-carboxamide], the activity at 2 µM was found to be 73.7%.
For `N#Cc1c(COc2ccc(Cl)cc2)nn2c(=O)c3ccccc3[nH]c12` [Example 42, 2-[(4-Chlorophenoxy)methyl]-9-oxo-4H-pyrazolo[5,1-b]quinazoline-3-carbonitrile], the activity at 2 µM stood at 105% and the activity at 20 µM came out at 4.5%.
Regarding `NC(=O)c1c(CCC(Cl)(Cl)Cl)nn2c(=O)c3ccccc3[nH]c12` [Example 43, 9-Oxo-2-(3,3,3-trichloropropyl)-4,9-dihydropyrazolo[5,1-b]quinazoline-3-carboxamide], the activity at 2 µM came to 65% and the activity at 20 µM was determined as 15.4%.
In the case of `N#Cc1c(CCC(Cl)(Cl)Cl)nn2c(=O)c3ccccc3[nH]c12` [Example 44, 9-Oxo-2-(3,3,3-trichloropropyl)-4H-pyrazolo[5,1-b]quinazoline-3-carbonitrile], the activity at 2 µM turned out to be 45.8% and the activity at 20 µM turned out to be 3.4%.
The like results for `NC(=O)c1c(CC2CCCCC2)nn2c(=O)c3ccccc3[nH]c12` [Example 45, 2-(Cyclohexylmethyl)-9-oxo-4H-pyrazolo[5,1-b]quinazoline-3-carboxamide] were, in that order, 82.4% and 4%.
On the same counts, the results for `N#Cc1c(CC2CCCCC2)nn2c(=O)c3ccccc3[nH]c12` [Example 46, 2-(Cyclohexylmethyl)-9-oxo-4H-pyrazolo[5,1-b]quinazoline-3-carbonitrile] are 67.1% and 5%.
The like results for `NC(=O)c1c(CCOc2ccc(Cl)cc2)nn2c(=O)c3ccccc3[nH]c12` [Example 47, 2-[2-(4-Chlorophenoxy)ethyl]-9-oxo-4H-pyrazolo[5,1-b]quinazoline-3-carboxamide] were, in that order, 54.7% and 11%.
Consider `N#Cc1c(CCOc2ccc(Cl)cc2)nn2c(=O)c3ccccc3[nH]c12` [Example 48, 2-[2-(4-Chlorophenoxy)ethyl]-9-oxo-4H-pyrazolo[5,1-b]quinazoline-3-carbonitrile], for which the activity at 2 µM came to 75.5% and the activity at 20 µM amounted to 10.9%.
The like results for `NC(=O)c1c(-c2ccc(Cl)cc2Cl)nn2c(=O)c3c(OCc4ccccc4)cccc3[nH]c12` [Example 49, 8-Benzyloxy-2-(2,4-dichlorophenyl)-9-oxo-4H-pyrazolo[5,1-b]quinazoline-3-carboxamide] were, in that order, 78.3% and 10.8%.
Take `N#Cc1c(-c2ccc(Cl)cc2Cl)nn2c(=O)c3c(OCc4ccccc4)cccc3[nH]c12` [Example 50, 8-Benzyloxy-2-(2,4-dichlorophenyl)-9-oxo-4H-pyrazolo[5,1-b]quinazoline-3-carbonitrile]: the activity at 2 µM came out at 75.8%.
Consider `NC(=O)c1c(C2CCC(F)(F)CC2)nn2c(=O)c3ccccc3[nH]c12` [Example 51, 2-(4,4-Difluorocyclohexyl)-9-oxo-4H-pyrazolo[5,1-b]quinazoline-3-carboxamide], for which the activity at 2 µM worked out at 92.4% and the activity at 20 µM was 103%.
On the same counts, the results for `N#Cc1c(C2CCC(F)(F)CC2)nn2c(=O)c3ccccc3[nH]c12` [Example 52, 2-(4,4-Difluorocyclohexyl)-9-oxo-4H-pyrazolo[5,1-b]quinazoline-3-carbonitrile] are 110% and 76.9%.
